Publication PMC10410440, “Preclinical PK investigation of a novel IDO1/TDO dual inhibitor—SHR9146 in mouse plasma and tissues by LC-MS/MS” (Frontiers in Oncology, 2023)
Where “and” joins values, the source holds several entries; their conditions need not be identical. Identical values can stand only once. Like-named read-outs stand apart in the source and are kept apart here.

Assay: Tissue distribution of SHR9146 in mice after oral gavage of 40 mg/kg
Type: in vivo, ICR mice
Conditions: 40 mg/kg, 40 mg/kg oral gavage; for concentration at 1 h / concentration at 3 h / concentration at 6 h / concentration at 24 h: female, ICR, mouse, po
Protocol: ICR mice with body weight 16–26 g were supplied by Shanghai Lingchang Biotechnology Co., Ltd. (animal breeding license number SCXK (Shanghai) 2013-0018) and housed at Shanghai Institute of Materia Medica, Chinese Academy of Sciences [animal use license number SYXK (Shanghai) 2015-0027]. The mice used in this study were fasted overnight for 12 h but had free access to water. Food was supplied 4 h post-dose. All experiments in this study were conducted in accordance with the Guidelines for the Care and Use of Laboratory Animals of Shanghai Institute of Materia Medica, Chinese Academy of Sciences.
Another set of 30 mice were randomly assigned into five groups with equal numbers, males and females, for tissue distribution study with oral gavage at a single dose of 40 mg/kg at predetermined different time points: pre-dose and post dose at 1, 3, 6, and 24 h, respectively. The whole brain, heart, liver, spleen, lung, kidney, bladder, pancreas, testis, ovary, uterus, stomach, small intestine, adrenal gland, skin, skeletal muscle, thyroid gland, and abdominal fat tissues as well as the whole blood and plasma samples were harvested. Tissue samples were washed with 0.9% sodium chloride solution to remove the residual blood or contents, blotted on a filter paper, and stored at −70°C prior to the analysis.
Protein precipitation was selected for the pretreatment of both the plasma and the tissue homogenate prepared after thawing at room temperature, cut into pieces, and homogenized with a quintuple methanol–water mixture (1:1, v/v) for each tissue sample.
Briefly as follows, an aliquot of 25-μL plasma or tissue homogenate was spiked with 100 μL of internal standard solution (1 μg/mL for plasma, 0.2 μg/mL for tissue homogenate) and 300 μL of methanol added and vortex mixed for 60 s. The mixture was then centrifuged at 14,000 rpm at 4°C for 5.0 min, and the supernatant was diluted with methanol–water (4:1, v/v) in a ratio of 1:9 for the plasma or 1:1 for the tissue homogenate, and 5 μL of the resulting solution was injected for the LC-MS/MS analysis.
After oral administration of 40 mg/kg SHR9146, samples in different tissues at predetermined time points (pre-drug administration, post-drug administration at 1, 3, 6, and 24 h) were collected and prepared for the analysis. The drug concentrations of SHR9146 (μg/g or μg/mL) were determined for each mouse, and the mean and standard deviation were further obtained (Table S7).

[1] = kidney, Mean (n=3), read-out: SHR9146 concentration in Kidney
[2] = liver, Mean (n=3), read-out: SHR9146 concentration in Liver
[3] = lung, Mean (n=3), read-out: SHR9146 concentration in Lung
[4] = ovary, Mean (n=3), read-out: SHR9146 concentration in Ovary
[5] = pancreas, Mean (n=3), read-out: SHR9146 concentration in Pancreas
[6] = plasma, Mean (n=3), read-out: SHR9146 concentration in Plasma
[7] = skeletal muscle, Mean (n=3), read-out: SHR9146 concentration in Skeletal muscle
[8] = skin, Mean (n=3), read-out: SHR9146 concentration in Skin
[9] = small intestine, Mean (n=3), read-out: SHR9146 concentration in Small intestine
[10] = spleen, Mean (n=3), read-out: SHR9146 concentration in Spleen
[11] = stomach, Mean (n=3), read-out: SHR9146 concentration in Stomach
[12] = stomach, individual mice, read-out: SHR9146 concentration in Stomach
[13] = thyroid gland, Mean (n=3), read-out: SHR9146 concentration in thyroid gland
[14] = uterus, Mean (n=3), read-out: SHR9146 concentration in Uterus
[15] = whole blood, Mean (n=3), read-out: SHR9146 concentration in Whole blood

Structure (SMILES): OCCn1cc(-c2ccc(N3CCC([C@H]4c5c(F)cccc5-c5cncn54)CC3)cc2)cn1 [SHR9146]
- concentration at 1 h (kidney, 1 h, individual mice, read-out: SHR9146 concentration in Kidney): 13100 ng/g
- concentration at 3 h [1]: 12700 ng/g
- concentration at 6 h [1]: 1430 ng/g
- concentration at 1 h (liver, 1 h, Mean (n=3), read-out: SHR9146 concentration in Liver): 24300 ng/g
- concentration at 1 h (liver, 1 h, individual mice, read-out: SHR9146 concentration in Liver): 22800 ng/g
- concentration at 3 h [2]: 19800 ng/g
- concentration at 6 h [2]: 1950 ng/g
- concentration at 24 h [2]: 37 ng/g
- concentration at 24 h (liver, individual mice, read-out: SHR9146 concentration in Liver): 54 ng/g
- concentration at 1 h (lung, 1 h, Mean (n=3), read-out: SHR9146 concentration in Lung): 16300 ng/g
- concentration at 1 h (lung, 1 h, individual mice, read-out: SHR9146 concentration in Lung): 13600 ng/g
- concentration at 3 h [3]: 25800 ng/g
- concentration at 6 h [3]: 1380 ng/g
- concentration at 24 h [3]: 165 ng/g
- concentration at 24 h (lung, individual mice, read-out: SHR9146 concentration in Lung): 154 ng/g
- concentration at 1 h (ovary, 1 h, Mean (n=3), read-out: SHR9146 concentration in Ovary): 18300 ng/g
- concentration at 1 h (ovary, 1 h, individual mice, read-out: SHR9146 concentration in Ovary): 17000 ng/g
- concentration at 3 h [4]: 12700 ng/g
- concentration at 6 h [4]: 704 ng/g
- concentration at 1 h (pancreas, 1 h, Mean (n=3), read-out: SHR9146 concentration in Pancreas): 18000 ng/g
- concentration at 1 h (pancreas, 1 h, individual mice, read-out: SHR9146 concentration in Pancreas): 15900 ng/g
- concentration at 3 h [5]: 12500 ng/g
- concentration at 6 h [5]: 638 ng/g
- concentration at 1 h (plasma, 1 h, Mean (n=3), read-out: SHR9146 concentration in Plasma): 13100 ng/mL
- concentration at 1 h (plasma, 1 h, individual mice, read-out: SHR9146 concentration in Plasma): 11800 ng/mL
- concentration at 3 h [6]: 9070 ng/mL
- concentration at 6 h [6]: 471 ng/mL
- concentration at 1 h (skeletal muscle, 1 h, Mean (n=3), read-out: SHR9146 concentration in Skeletal muscle): 7800 ng/g
- concentration at 1 h (skeletal muscle, 1 h, individual mice, read-out: SHR9146 concentration in Skeletal muscle): 6440 ng/g
- concentration at 3 h [7]: 5910 ng/g
- concentration at 6 h [7]: 294 ng/g
- concentration at 1 h (skin, 1 h, Mean (n=3), read-out: SHR9146 concentration in Skin): 11100 ng/g
- concentration at 1 h (skin, 1 h, individual mice, read-out: SHR9146 concentration in Skin): 9600 ng/g
- concentration at 3 h [8]: 7700 ng/g
- concentration at 6 h [8]: 498 ng/g
- concentration at 1 h (small intestine, 1 h, Mean (n=3), read-out: SHR9146 concentration in Small intestine): 21600 ng/g
- concentration at 1 h (small intestine, 1 h, individual mice, read-out: SHR9146 concentration in Small intestine): 19000 ng/g
- concentration at 3 h [9]: 16400 ng/g
- concentration at 3 h (small intestine, individual mice, read-out: SHR9146 concentration in Small intestine): 14600 ng/g
- concentration at 6 h [9]: 832 ng/g
- concentration at 1 h (spleen, 1 h, Mean (n=3), read-out: SHR9146 concentration in Spleen): 6700 ng/g
- concentration at 1 h (spleen, 1 h, individual mice, read-out: SHR9146 concentration in Spleen): 6190 ng/g
- concentration at 3 h [10]: 4740 ng/g
- concentration at 6 h [10]: 241 ng/g
- concentration at 1 h (stomach, 1 h, Mean (n=3), read-out: SHR9146 concentration in Stomach): 27800 ng/g
- concentration at 1 h (stomach, 1 h, individual mice, read-out: SHR9146 concentration in Stomach): 27400 ng/g
- concentration at 3 h [11]: 27200 ng/g
- concentration at 3 h [12]: 29000 ng/g
- concentration at 6 h [11]: 3870 ng/g
- concentration at 24 h [11]: 848 ng/g
- concentration at 24 h [12]: 782 ng/g
- concentration at 1 h (thyroid gland, 1 h, Mean (n=3), read-out: SHR9146 concentration in thyroid gland): 9550 ng/g
- concentration at 1 h (thyroid gland, 1 h, individual mice, read-out: SHR9146 concentration in thyroid gland): 8340 ng/g
- concentration at 3 h [13]: 6940 ng/g
- concentration at 6 h [13]: 378 ng/g
- concentration at 1 h (uterus, 1 h, Mean (n=3), read-out: SHR9146 concentration in Uterus): 10700 ng/g
- concentration at 1 h (uterus, 1 h, individual mice, read-out: SHR9146 concentration in Uterus): 9740 ng/g
- concentration at 3 h [14]: 6040 ng/g
- concentration at 6 h [14]: 363 ng/g
- concentration at 1 h (whole blood, 1 h, Mean (n=3), read-out: SHR9146 concentration in Whole blood): 8660 ng/mL
- concentration at 1 h (whole blood, 1 h, individual mice, read-out: SHR9146 concentration in Whole blood): 7360 ng/mL
- concentration at 3 h [15]: 6190 ng/mL
- concentration at 6 h [15]: 298 ng/mL
- SHR9146 concentration in Bladder (male, 1 h, individual mice): 13.766 µg/g and 11.095 µg/g
- SHR9146 concentration in Kidney (male, 1 h, individual mice): 15.501 µg/g and 7.908 µg/g
- SHR9146 concentration in Liver (male, 1 h, individual mice): 23.893 µg/g and 14.099 µg/g
- SHR9146 concentration in Lung (male, 1 h, individual mice): 16.090 µg/g and 8.210 µg/g
